Measured values: US10391104B2, “Application of antidepressant compound in preparation of antidepressant drugs and antidepressant health-care foods” (ZHEJIANG ACADEMY OF MEDICAL SCIENCES, priority 2015, dated 2019)

Tests used:
Male Kunming mice [1] = assay: mouse forced swimming test; type: in vivo; details: for effect on immobility time compared with normal saline control: 15 mg/kg
Description: (§1) Experimental method: the experiment was made using the mouse forced swimming test and tail suspension test according to the experimental methodology of pharmacology (see the description of these methods in Xu Shuyun et al. Experimental Methodology of Pharmacology. People's Medical Publishing House, 2005: 807-808) by subacute treatment (administered twice within 24 hours) and by intraperitoneal administration. The solvent control and the positive control with fluoxetine and imipramine were established in the experiment.
(§2) Administration method: totally 6 dosage groups of sarcostin were established: 0.05, 0.1, 0.25, 0.5, 1, 5 mg/kg. Male Kunming mice were randomly grouped in the experiment. All test samples were intraperitoneally administered at a volumetric dose of 0.1 mL/10 g. Administration frequency and time: test was made twice respectively in 0 and 19 h, and test was made in 24 h after the first administration. Positive control: 15 mg/kg of fluoxetine and 15 mg/kg of imipramine.

Male Kunming mice [2] = assay: mouse tail suspension test; type: in vivo
Description: as §1, §2

[3] = maximum dissolution amount; type: physicochemical
Description: (§3) Experimental method: 20 clean male ICR mice were randomly divided into two groups, and fasted for 12 h before the experiment. Sarcostin was administered many times based on its maximum dissolution amount and maximum administration volume. For the oral administration group, sarcostin was prepared with ultra-pure water (maximum dissolution amount: 1.5 mg/mL), and was intragastrically administered four times in 24 hours with 0.3 ml/10 g body weight each time, and with the total dosage of 180 mg/kg. For the intraperitoneal injection group, sarcostin was prepared with normal saline (maximum dissolution amount: 1.0 mg/mL), and was intraperitoneally injected four times in 24 hours with 0.3 ml/10 g body weight each time, and with the total dosage of 120 mg/kg.

male ICR mice = assay: preliminary acute toxicity test; type: in vivo, mouse; details: for toxic reaction: four times in 24 h, observed 7 days; for toxic and side reaction: preliminary acute toxicity test, no doses given
Description: as §3

mice = assay: antidepressant activity test of compounds 3, 23 and derivatives; type: in vivo, mouse; details: no doses given
Description: The solvent control and the positive control with fluoxetine and imipramine were established in the experiment.
as §2, with “administration.” for “administration. Positive control: 15 mg/kg of fluoxetine and 15 mg/kg of imipramine.”

[4] = 15 mg/kg i.p., twice within 24 h (0 and 19 h), test at 24 h
[5] = tail suspension test, 15 mg/kg i.p., twice within 24 h (0 and 19 h), test at 24 h

Compound: CNCCC(Oc1ccc(C(F)(F)F)cc1)c1ccccc1 (stereo not drawn) [Fluoxetine, reference compound]
- effect on immobility time compared with normal saline control (Male Kunming mice [1]): significantly reduced the immobility time
- Immobility time (Average value, s) (Male Kunming mice [1]; [4]): 79.00 s
- effect on immobility time compared with normal saline group (Male Kunming mice [2]; tail suspension test, 15 mg/kg): significantly reduced the immobility time
- Immobility time (Average value, s) (Male Kunming mice [2]; [5]): 132.45 s

Compound: CN(C)CCCN1c2ccccc2CCc2ccccc21 [Imipramine, reference compound]
- effect on immobility time compared with normal saline control (Male Kunming mice [1]): significantly reduced the immobility time
- Immobility time (Average value, s) (Male Kunming mice [1]; [4]): 92.05 s
- effect on immobility time compared with normal saline group (Male Kunming mice [2]; tail suspension test, 15 mg/kg): significantly reduced the immobility time
- Immobility time (Average value, s) (Male Kunming mice [2]; [5]): 155.37 s

Compound: C[C@H](O)[C@]1(O)CC[C@@]2(O)[C@]1(C)[C@H](O)C[C@@H]1[C@@]3(C)CC[C@H](O)CC3=CC[C@]12O [Sarcostin]
- maximum dissolution amount ([3]; normal saline): 1.0 mg/mL
- maximum dissolution amount ([3]; ultra-pure water): 1.5 mg/mL
- preferred dose (Male Kunming mice [1]): 0.1 mg/kg
- Immobility time (Average value, s) (Male Kunming mice [1]; 0.05 mg/kg i.p., twice within 24 h): 85.13 s
- Immobility time (Average value, s) (Male Kunming mice [1]; 0.1 mg/kg i.p., twice within 24 h): 83.63 s
- Immobility time (Average value, s) (Male Kunming mice [1]; 0.25 mg/kg i.p., twice within 24 h): 112.63 s
- Immobility time (Average value, s) (Male Kunming mice [1]; 0.5 mg/kg i.p., twice within 24 h): 118.19 s
- Immobility time (Average value, s) (Male Kunming mice [1]; 1 mg/kg i.p., twice within 24 h): 125.44 s
- Immobility time (Average value, s) (Male Kunming mice [1]; 5 mg/kg i.p., twice within 24 h): 91.50 s
- antidepressant activity compared with normal saline control (Male Kunming mice [1]; 0.05 to 0.5 mg/kg): significant antidepressant activities
- toxic reaction (male ICR mice; intragastric, total 180 mg/kg): without obvious toxic and side reaction
- toxic reaction (male ICR mice; intraperitoneal injection, total 120 mg/kg): without obvious toxic and side reaction
- preferred dosage (Male Kunming mice [2]; tail suspension test): 0.5 mg/kg
- Immobility time (Average value, s) (Male Kunming mice [2]; tail suspension test, 0.05 mg/kg i.p., twice within 24 h): 177.94 s
- Immobility time (Average value, s) (Male Kunming mice [2]; tail suspension test, 0.1 mg/kg i.p., twice within 24 h): 167.77 s
- Immobility time (Average value, s) (Male Kunming mice [2]; tail suspension test, 0.25 mg/kg i.p., twice within 24 h): 207.60 s
- Immobility time (Average value, s) (Male Kunming mice [2]; tail suspension test, 0.5 mg/kg i.p., twice within 24 h): 166.46 s
- Immobility time (Average value, s) (Male Kunming mice [2]; tail suspension test, 1 mg/kg i.p., twice within 24 h): 200.99 s
- Immobility time (Average value, s) (Male Kunming mice [2]; tail suspension test, 5 mg/kg i.p., twice within 24 h): 177.05 s
- antidepressant trend (Male Kunming mice [2]; tail suspension test, 0.1, 0.5 and 0.05 mg/kg groups): showed antidepressant trend
- effect on immobility time compared with normal saline group (Male Kunming mice [2]; tail suspension test, all sarcostin doses): did not significantly reduce the immobility time

Compound: CC=C(C)C(=O)OC(C)C1(O)CCC2(O)C3(O)CC=C4CC(O)CCC4(C)C3CC(OC(=O)C(C)=CC)C12C (stereo not drawn) [compound 3, 12-O-tigloyl-20-O-tigloylsarcostin]
- toxic and side reaction (male ICR mice): no significant toxic and side reaction
- antidepressant activity (mice): significant antidepressant activities

Compound: CNc1ccccc1C(=O)OC1CC2C3(C)CCC(O)CC3=CCC2(O)C2(O)CCC(O)(C(C)=O)C12C (stereo not drawn) [compound 23, 12-O-(N-methyl) anthraniloyl deacetylmetaplexigenin]
- toxic and side reaction (male ICR mice): no significant toxic and side reaction
- antidepressant activity (mice): significant antidepressant activities
